Patent US11925649B2, “Treatments for diabetic neuropathy” (University of Manitoba, priority 2010, dated 2024)

Experiments:
[1] = tested on: M1R relative to M(2)-M(5); conditions: cited from earlier work
[2] = tested on: STZ-induced diabetic Swiss Webster mice; assay: Reversal of thermal hypoalgesia and IENF loss in STZ-induced diabetic mice, i.p.; format: in vivo, mouse; conditions: 10 mg/kg i.p. daily for 4 weeks from week 8
Procedure: Swiss Webster (outbred) mice were made diabetic with 2 injections of 90 mg/kg STZ on consecutive days. […] The mice were maintained for 8 weeks after STZ injections. Diabetic neuropathy was well-established in the mice that received STZ injections as evidenced by signs of neuropathy (thermal hypoalgesia). A cohort then received 10 mg/kg VU255035 by i.p. injection daily for 4 weeks.

[3] = tested on: AMP-activated protein kinase (AMPK); assay: Phosphorylation of AMPK in cultured sensory neurons (Western blot); format: cell-based, rat; conditions: 10 μM
Procedure: Samples were taken immediately (time 0) and then after 15 min, 30 min, 60 min, and 6 hr of incubation. Quantitative Western blotting was performed as following the procedure taught in Example 5. DRG homogenates of 5-10 μg of protein were resolved on a 10% SDS-PAGE gel and electroblotted onto nitrocellulose membrane. Blots were then blocked in 5% nonfat milk containing 0.05% Tween-20, rinsed in PBS (pH 7.4) and incubated with the following antibodies: (i) polyclonal anti-phospho AMPK (on Thr-172, 1:1000, Cell Signaling Technology, Danvers, MA, US), and (ii) extracellular signal-regulated kinase (T-ERK; 1:2000, Covance, Princeton, NJ, US). The blots were rinsed, incubated in Western blotting Luminol Reagent (Santa Cruz Biotechnology Inc., Santa Cruz, CA, US) and imaged using a BioRad Fluor-S image analyzer (BioRad, Hercules, CA, US).

[4] = in vivo in mice; cited from earlier work
[5] = tested on: sensory neurons from DRG of Sprague Dawley rat; assay: Total neurite outgrowth at low concentrations of M1R antagonists (immunostaining); format: cell-based; conditions: 24 hr culture
Procedure: Sensory neurons from cervical, thoracic and lumbar DRG of an adult 3-4 month old male Sprague Dawley rat were isolated and dissociated using the method described in Example 1, and then were cultured for 24 h in serum-free and insulin-free F12 medium in the presence of modified N2 additives. […] Neurite outgrowth was then assessed after a culture period of 24 hr.
Total neurite lengths (i.e., the sum of the length of all neurites produced by an individual neuron) were assessed using an immunostaining method. […] Four images were captured per well and the replicate well frequency was set to n=6. The neuronal marker β-tubulin III (Sigma-Aldrich Canada Ltd.) was applied to formalin fixed cells. The marker was tagged with the fluorescent conjugate Alexa Fluor 488 (Invitrogen Canada Ltd.). Fluorescent images were collected using an Olympus IX71 inverted microscope with a 20×/0.45 PH1 [sequence] objective that was suitable for resolving images on plastic surfaces. […] Captured image fluorescence was thereafter converted to a grayscale 8-bit image to quantify total pixel volume. […] Total pixel volume of the neuron specific cell bodies and neurites were quantified. […] The net pixel volume was normalized against the number of neuronal cells per quantified field.

[6] = tested on: M1R; conditions: cited from earlier work
[7] = tested on: sensory neurons from DRG of non-diabetic Sprague Dawley rat; assay: Neurite outgrowth from excised neurons from a normal rat; format: cell-based; conditions: 24 hr; for neurite outgrowth rates: higher dosages 0.1 to 10.0 μM; for neurite outgrowth: lowest dosage of 0.01 μM
Excerpt: Sensory neurons from cervical, thoracic and lumbar DRG of a 3-4 month old adult male ZDF diabetic rat (model of type 2 diabetes) were isolated and dissociated using a method based on the teachings of Fernyhough et al. (1993, Brain Res. 607:117-124), Gardiner et al. (2005, Mol. Cell Neurosci. 28:229-240), and Huang et al. (2003, Diabetes 52:2129-2136). Briefly, DRG were removed from all spinal levels, their roots trimmed, and then the cells were chemically dissociated in 0.125% collagenase (Worthington Biochemical Corp., Lakewood, NJ, USA) in F12 nutrient medium (Invitrogen Canada Inc., Burlington, ON, Canada) for 1.5 h at 37° C. The ganglia were then mechanically dissociated by treatment with 0.05% trypsin (Worthington Biochemical Corp.) in F12 nutrient medium, followed by trituration with a glass pipette. […] The neuron cells were plated onto poly-L-ornithine-laminin-coated NUNC 48-well or 96-well plastic dishes with optically clear glass bottoms in serum-free and insulin-free F12 medium in the presence of modified N2 additives (containing no insulin) at 37° C. in a 95% air/5% CO2 humidified incubator. All cultures were exposed to the following additional conditions: 10 mM D-glucose, 0.1 nM insulin, 0.3 ng/ml NGF, 1 ng/ml NT-3 and 5 ng/ml GDNF (all obtained from Sigma-Aldrich Canada Ltd.). […] Neurite outgrowth was then assessed at 24 hr as previously described by Fernyhough et al. (1993) and Gardiner et al. (2005).
Sensory neurons from cervical, thoracic and lumbar DRG of a 3-4 month old non-diabetic adult male Sprague Dawley rat were isolated and dissociated using the method described in Example 1. The excised and dissociated neuron cells were plated onto poly-L-ornithine-laminin-coated NUNC 48-well or 96-well plastic dishes with optically clear glass bottoms in serum-free and insulin-free F12 medium in the presence of modified N2 additives (containing no insulin) at 37° C. in a 95% air/5% CO2 humidified incubator. All cultures were exposed to the following additional conditions: 10 mM D-glucose, 0.1 nM insulin, 0.3 ng/ml NGF, 1 ng/ml NT-3 and 5 ng/ml GDNF (all obtained from Sigma-Aldrich Canada Ltd.). […] Neurite outgrowth was then assessed at 24 hr.

Structure (SMILES)	selectivity to M1R relative to M2, M3, M4 and M5 receptors [1] [times]	selectivity for M1R relative to M(2)-M(5) ([1]; equilibrium radioligand binding and functional studies)	loss of IENF [2]	loss of SNP [2]	thermal hypoalgesia [2]	total AMPK levels [3]	phosphorylation of AMPK (P-AMPK) relative to total ERK ([3]; 30-60 min)	phosphorylation of AMPK (P-AMPK) relative to total ERK ([3]; by 15 min)	phosphorylation of AMPK (P-AMPK) relative to total ERK ([3]; by 6 hr)	blood brain barrier penetration [4]	concentration that significantly increased total neurite outgrowth [5] [µM]	mode of antagonism [6]	neurite outgrowth rates [7]	neurite outgrowth [7]
O=C(CCNS(=O)(=O)c1cccc2nsnc12)N1CCN(c2ccncc2)CC1 [VU255035, N-(3-oxo-3-(4-(pyridine-4-yl)piperazin-1-yl)propyl)-benzo[c][1,2,5]thiadiazole-4 sulfonamide]	75	greater than 75 fold	significantly reversed loss	significantly reversed loss	significant reversal back to control levels of thermal sensitivity	not affected	maintained phosphorylation	significantly raised phosphorylation of AMPK	return to baseline	excellent blood brain barrier penetration	≥ 0.03	competitive orthosteric antagonist of M1R	–	–
CN1[C@@H]2CC[C@H]1C[C@@H](OC(=O)C(CO)c1ccccc1)C2 (stereo partly shown) [atropine]	–	–	–	–	–	–	–	–	–	–	–	–	did not further increase neurite outgrowth rates	more than tripled
Cc1scc2c1N(C(=O)CN1CCN(C)CC1)c1ccccc1NC2=O [telenzepine, Telenzepine]	–	–	–	–	–	–	–	–	–	–	–	–	tripled	more than doubled
